Measurements reported in PubChem BioAssay AID330 (DTP/NCI, 2004).
Values joined by “and” are separate entries in the source; they are usually repeats but may differ in a detail not shown here. Equal values may be shown once. Toxic doses and inconclusive results are not listed. Rule for the calls: active = survival T/C of 150% or more; inactive = T/C below 125% in these data.

Tested on: P388 leukemia ip, CD2F1 mice, survival T/C
Test: NCI In Vivo Anticancer Drug Screen. Data for tumor model P388 Leukemia (intraperitoneal) in CD2F1 (CDF1) mice
Conditions: endpoint: median survival time, higher = longer survival
In short: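 Mice carrying the transplanted tumor received test compound or vehicle. Survival was recorded in each group, and the value is the treated-group measurement divided by that of the vehicle-treated control group.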

[1] = dose: 50.0 mg/kg/injection, schedule: Q01DX009 (ip), vehicle: Klucel (hydroxypropylcellulose) (HPC)
[2] = dose: 100.0 mg/kg/injection, schedule: Q01DX009 (ip), vehicle: Klucel (hydroxypropylcellulose) (HPC)
[3] = dose: 200.0 mg/kg/injection, schedule: Q01DX009 (ip), vehicle: Klucel (hydroxypropylcellulose) (HPC)
[4] = dose: 60.0 mg/kg/injection, schedule: Q01DX005 (ip), vehicle: saline with Tween-80
[5] = dose: 120.0 mg/kg/injection, schedule: Q01DX005 (ip), vehicle: saline with Tween-80
[6] = dose: 60.0 mg/kg/injection, schedule: Q01DX005 (ip), vehicle: Klucel (hydroxypropylcellulose) (HPC)
[7] = dose: 120.0 mg/kg/injection, schedule: Q01DX005 (ip), vehicle: Klucel (hydroxypropylcellulose) (HPC)
[8] = dose: 50.0 mg/kg/injection, schedule: Q01DX005 (ip), vehicle: saline with Tween-80
[9] = dose: 100.0 mg/kg/injection, schedule: Q01DX005 (ip), vehicle: saline with Tween-80
[10] = dose: 200.0 mg/kg/injection, schedule: Q01DX005 (ip), vehicle: saline with Tween-80
[11] = dose: 50.0 mg/kg/injection, schedule: Q01DX009 (ip), vehicle: saline with Tween-80
[12] = dose: 100.0 mg/kg/injection, schedule: Q01DX009 (ip), vehicle: saline with Tween-80
[13] = dose: 200.0 mg/kg/injection, schedule: Q01DX009 (ip), vehicle: saline with Tween-80
[14] = dose: 50.0 mg/kg/injection, schedule: Q01DX005 (ip), vehicle: Klucel (hydroxypropylcellulose) (HPC)
[15] = dose: 100.0 mg/kg/injection, schedule: Q01DX005 (ip), vehicle: Klucel (hydroxypropylcellulose) (HPC)
[16] = dose: 200.0 mg/kg/injection, schedule: Q01DX005 (ip), vehicle: Klucel (hydroxypropylcellulose) (HPC)
[17] = dose: 12.5 mg/kg/injection, schedule: Q01DX009 (ip), vehicle: saline with Tween-80
[18] = dose: 25.0 mg/kg/injection, schedule: Q01DX009 (ip), vehicle: saline with Tween-80
[19] = dose: 15.0 mg/kg/injection, schedule: Q01DX005 (ip), vehicle: saline with Tween-80
[20] = dose: 30.0 mg/kg/injection, schedule: Q01DX005 (ip), vehicle: saline with Tween-80

Measured: T/C

CCCCCCCCCC(C)(C)NP(=S)(OCC)OCC (tested in a mixture with another compound)
inactive: [1] 105 % of control | [2] 105 % of control | [3] 100 % of control

O=C1c2cc3c(cc2C(=O)c2[nH]ncc21)OCO3
inactive: [4] 92 % of control | [5] 100 % of control | dose: 240.0 mg/kg/injection, schedule: Q01DX005 (ip), vehicle: saline with Tween-80 96 % of control

COc1cc(CO)ccc1O
inactive: dose: 100.0 mg/kg/injection, schedule: Q01DX009 (ip), vehicle: saline 102 % of control and 105 % of control | dose: 200.0 mg/kg/injection, schedule: Q01DX009 (ip), vehicle: saline 89 % of control and 93 % of control | dose: 400.0 mg/kg/injection, schedule: Q01DX009 (ip), vehicle: saline 99 % of control and 104 % of control | dose: 600.0 mg/kg/injection, schedule: Q01DX009 (ip), vehicle: saline 107 % of control and 89 % of control

CC(=O)c1c(C)cc2cccc(O)c2c1O
inactive: dose: 15.0 mg/kg/injection, schedule: Q01DX005 (ip), vehicle: Klucel (hydroxypropylcellulose) (HPC) 105 % of control | dose: 30.0 mg/kg/injection, schedule: Q01DX005 (ip), vehicle: Klucel (hydroxypropylcellulose) (HPC) 112 % of control | [6] 103 % of control | [7] 108 % of control

NNC(=O)C(=O)N/N=C(\CC1(O)C(=O)Nc2ccccc21)c1ccccc1O (stereo not given)
inactive: [8] 104 % of control | [9] 98 % of control | [10] 103 % of control

COc1ccc(OC)c(CCc2cc(OC)ccc2OC)c1
inactive: dose: 0.78 mg/kg/injection, schedule: Q01DX009 (ip), vehicle: DMSO 88 % of control | dose: 6.25 mg/kg/injection, schedule: Q01DX009 (ip), vehicle: DMSO 92 % of control | dose: 25.0 mg/kg/injection, schedule: Q01DX009 (ip), vehicle: DMSO 94 % of control | dose: 50.0 mg/kg/injection, schedule: Q01DX009 (ip), vehicle: DMSO 109 % of control

Cc1ccc2c(c1)NC(c1cccc(N=Cc3cc(Cl)cc(Cl)c3O)c1)c1cccn1-2 (stereo not given)
inactive: [11] 86 % of control | [12] 91 % of control | [13] 96 % of control

Cc1ccc2ccc3ccc(C)nc3c2n1.O=[N+]([O-])O.O=[N+]([O-])O.[Cu]
inactive: dose: 6.25 mg/kg/injection, schedule: Q04DX002 (ip), vehicle: saline 109 % of control | dose: 12.5 mg/kg/injection, schedule: Q04DX002 (ip), vehicle: saline 113 % of control

O=C1NC(=O)C2(CCCc3ccccc32)N1 (stereo not given)
inactive: [14] 101 % of control | [8] 97 % of control | [15] 104 % of control | [9] 94 % of control | [16] 104 % of control | [10] 94 % of control

O=c1sc2ccccc2n1CN(CCO)Cn1c(=O)sc2ccccc21
inactive: [14] 91 % of control | [15] 89 % of control | [16] 90 % of control

Cc1c(N)nc(C(CC(N)=O)NCC(N)C(N)=O)nc1C(=O)NC(C(=O)NC(C)C(O)C(C)C(=O)NC(C(=O)NCCc1nc(-c2nc(C(=O)NCCCNCCCCN)cs2)cs1)C(C)O)C(OC1OC(CO)C(O)C(O)C1OC1OC(CO)C(O)C(OC(N)=O)C1O)c1cnc[nH]1 (stereo not given)
inactive: dose: 12.5 mg/kg/injection, schedule: Q01DX005 (ip), vehicle: saline 117 % of control | dose: 100.0 mg/kg/injection, schedule: Q01DX005 (ip), vehicle: saline 104 % of control

CCN(CCO)CCNc1ccc(C)c2sc3cc(OC)ccc3c(=O)c12
inactive: [8] 102 % of control and 103 % of control and 107 % of control | [9] 106 % of control and 112 % of control and 117 % of control | [10] 103 % of control and 119 % of control | dose: 400.0 mg/kg/injection, schedule: Q01DX005 (ip), vehicle: saline with Tween-80 115 % of control

Cc1ccc(N=C(N=C(NC(=O)c2ccccc2)c2ccccc2)c2ccccc2)cc1
inactive: [17] 99 % of control | [18] 97 % of control | [11] 89 % of control and 93 % of control (2×) | [13] 95 % of control

CC1(C)CC2(OC2c2ccccc2)C(=O)c2ccccc21 (stereo not given)
inactive: dose: 25.0 mg/kg/injection, schedule: Q01DX009 (ip), vehicle: Klucel (hydroxypropylcellulose) (HPC) 89 % of control | [1] 89 % of control | [2] 87 % of control | dose: 400.0 mg/kg/injection, schedule: Q01DX009 (ip), vehicle: Klucel (hydroxypropylcellulose) (HPC) 88 % of control

CC(=O)NC(CC(C)C)C(=O)NC(CC(C)C)C(=O)NC(C=O)CCCN=C(N)N (stereo not given)
inactive: dose: 100.0 mg/kg/injection, schedule: Q01DX001 (ip), vehicle: saline 106 % of control | dose: 200.0 mg/kg/injection, schedule: Q01DX001 (ip), vehicle: saline 105 % of control

O=P(c1ccccc1)(c1ccccc1)c1ccccc1.O=P(c1ccccc1)(c1ccccc1)c1ccccc1.O=P(c1ccccc1)(c1ccccc1)c1ccccc1.O=P(c1ccccc1)(c1ccccc1)c1ccccc1.[Co+2].[O-][Cl+3]([O-])([O-])O
inactive: [11] 96 % of control | [12] 99 % of control

COc1cccc2c1ccc1nonc12
inactive: [8] 95 % of control | [9] 88 % of control | [10] 86 % of control

O=C(Nc1ccc(Cl)cc1)Nc1nnc(-c2ccc(F)cc2)o1
inactive: [19] 100 % of control | [20] 91 % of control | [4] 90 % of control

COC(=O)c1[se]c(=[Se])[se]c1C(=O)OC
inactive: dose: 200.0 mg/kg/injection, schedule: Q01DX001 (ip), vehicle: Klucel (hydroxypropylcellulose) (HPC) 88 % of control

C=C1[C@H]2C[C@H]2[C@]2(C)C[C@@H]3OC(=O)C(C)=C3C[C@@H]12
inactive: dose: 4.88 mg/kg/injection, schedule: Q01DX005 (ip), vehicle: Klucel (hydroxypropylcellulose) (HPC) 89 % of control | dose: 9.75 mg/kg/injection, schedule: Q01DX005 (ip), vehicle: Klucel (hydroxypropylcellulose) (HPC) 94 % of control | dose: 39.0 mg/kg/injection, schedule: Q01DX005 (ip), vehicle: Klucel (hydroxypropylcellulose) (HPC) 94 % of control | dose: 78.0 mg/kg/injection, schedule: Q01DX005 (ip), vehicle: Klucel (hydroxypropylcellulose) (HPC) 94 % of control

CC(C)(C)C(=O)OCCN(CCOC(=O)C(C)(C)C)C(=O)COC(=O)C(C)(C)C
inactive: [11] 96 % of control | [12] 94 % of control | [13] 100 % of control

S1SSSSSSS1
inactive: dose: 8.0 mg/kg/injection, schedule: Q01DX005 (ip), vehicle: Klucel (hydroxypropylcellulose) (HPC) 103 % of control | dose: 16.0 mg/kg/injection, schedule: Q01DX005 (ip), vehicle: Klucel (hydroxypropylcellulose) (HPC) 106 % of control | dose: 32.0 mg/kg/injection, schedule: Q01DX005 (ip), vehicle: Klucel (hydroxypropylcellulose) (HPC) 104 % of control | dose: 64.0 mg/kg/injection, schedule: Q01DX005 (ip), vehicle: Klucel (hydroxypropylcellulose) (HPC) 100 % of control

CCC(c1ccccc1)c1cc(C(C)(C)C)cc(C(C)(C)C)c1O (stereo not given)
inactive: dose: 50.0 mg/kg/injection, schedule: Q01DX005 (ip), vehicle: distilled water + alcohol 100 % of control | dose: 100.0 mg/kg/injection, schedule: Q01DX005 (ip), vehicle: distilled water + alcohol 107 % of control | dose: 200.0 mg/kg/injection, schedule: Q01DX005 (ip), vehicle: distilled water + alcohol 100 % of control

Nc1ccccc1C(=O)Nc1ccc(Cl)cc1Cl
inactive: [8] 104 % of control | [9] 92 % of control | [10] 92 % of control

c1cc2sc3ccc(OCCCN4CCCCC4)cc3c2cc1OCCCN1CCCCC1
inactive: [17] 104 % of control | [18] 115 % of control | [11] 91 % of control

CC(C)(C)c1cc(C(C)(C)C)c2[n+]([O-])ssc1-2
inactive: [19] 120 % of control | [20] 108 % of control | [4] 113 % of control and 95 % of control | [5] 97 % of control

CC(C)(C)NC(=O)NS(=O)(=O)c1cccnc1Sc1ccccc1Cl
inactive: [6] 107 % of control | [7] 105 % of control | dose: 240.0 mg/kg/injection, schedule: Q01DX005 (ip), vehicle: Klucel (hydroxypropylcellulose) (HPC) 99 % of control

N#CC1c2ccccc2C=CN1C(=O)CCCl (stereo not given)
inactive: [1] 106 % of control | [2] 108 % of control | [3] 108 % of control
